The source of these data is ChEMBL document CHEMBL1150977, “A quantitative analysis of kinase inhibitor selectivity” (Nat Biotechnol, 2008).

For assay [1], the target named is Serine/threonine-protein kinase N1 (Homo sapiens, UniProt Q16512).
The target of assay [2] is T1, Serine/threonine-protein kinase Nek1 (Homo sapiens, UniProt Q96PY6).
T1 sequence (Q96PY6 whole entry): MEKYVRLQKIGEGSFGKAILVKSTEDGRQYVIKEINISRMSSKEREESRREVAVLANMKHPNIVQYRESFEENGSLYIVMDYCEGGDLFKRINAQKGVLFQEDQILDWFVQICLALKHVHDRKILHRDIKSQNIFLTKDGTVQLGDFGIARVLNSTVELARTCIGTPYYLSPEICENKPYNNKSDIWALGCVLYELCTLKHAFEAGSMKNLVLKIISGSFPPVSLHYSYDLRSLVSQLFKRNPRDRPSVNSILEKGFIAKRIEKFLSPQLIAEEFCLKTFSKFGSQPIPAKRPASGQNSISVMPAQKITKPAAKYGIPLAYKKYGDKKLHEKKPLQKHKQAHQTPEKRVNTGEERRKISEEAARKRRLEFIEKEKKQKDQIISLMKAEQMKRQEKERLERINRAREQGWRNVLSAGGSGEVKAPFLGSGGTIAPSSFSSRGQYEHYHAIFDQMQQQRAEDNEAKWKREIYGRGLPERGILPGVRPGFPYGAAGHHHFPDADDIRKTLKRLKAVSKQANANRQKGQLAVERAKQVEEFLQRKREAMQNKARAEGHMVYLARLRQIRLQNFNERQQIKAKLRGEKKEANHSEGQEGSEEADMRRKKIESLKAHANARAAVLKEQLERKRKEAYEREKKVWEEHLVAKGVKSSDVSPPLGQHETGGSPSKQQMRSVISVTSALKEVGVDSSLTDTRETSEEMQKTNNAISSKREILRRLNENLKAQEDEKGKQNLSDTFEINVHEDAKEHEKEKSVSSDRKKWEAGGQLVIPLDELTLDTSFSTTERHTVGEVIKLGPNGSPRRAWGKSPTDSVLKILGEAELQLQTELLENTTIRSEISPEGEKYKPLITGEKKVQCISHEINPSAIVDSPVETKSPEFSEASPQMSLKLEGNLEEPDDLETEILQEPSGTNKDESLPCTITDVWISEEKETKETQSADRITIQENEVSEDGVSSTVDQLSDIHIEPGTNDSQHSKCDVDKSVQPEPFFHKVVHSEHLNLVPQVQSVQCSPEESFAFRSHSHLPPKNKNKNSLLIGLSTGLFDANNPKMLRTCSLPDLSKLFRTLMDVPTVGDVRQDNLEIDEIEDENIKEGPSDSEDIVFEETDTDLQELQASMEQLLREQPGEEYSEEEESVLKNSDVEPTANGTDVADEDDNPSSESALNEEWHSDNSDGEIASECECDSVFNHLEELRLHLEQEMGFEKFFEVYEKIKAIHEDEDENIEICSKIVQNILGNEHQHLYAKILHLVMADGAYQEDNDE

For assay [3], the target named is T2, Myosin-IIIb (Homo sapiens, UniProt Q8WXR4).
T2 sequence (Q8WXR4 whole entry): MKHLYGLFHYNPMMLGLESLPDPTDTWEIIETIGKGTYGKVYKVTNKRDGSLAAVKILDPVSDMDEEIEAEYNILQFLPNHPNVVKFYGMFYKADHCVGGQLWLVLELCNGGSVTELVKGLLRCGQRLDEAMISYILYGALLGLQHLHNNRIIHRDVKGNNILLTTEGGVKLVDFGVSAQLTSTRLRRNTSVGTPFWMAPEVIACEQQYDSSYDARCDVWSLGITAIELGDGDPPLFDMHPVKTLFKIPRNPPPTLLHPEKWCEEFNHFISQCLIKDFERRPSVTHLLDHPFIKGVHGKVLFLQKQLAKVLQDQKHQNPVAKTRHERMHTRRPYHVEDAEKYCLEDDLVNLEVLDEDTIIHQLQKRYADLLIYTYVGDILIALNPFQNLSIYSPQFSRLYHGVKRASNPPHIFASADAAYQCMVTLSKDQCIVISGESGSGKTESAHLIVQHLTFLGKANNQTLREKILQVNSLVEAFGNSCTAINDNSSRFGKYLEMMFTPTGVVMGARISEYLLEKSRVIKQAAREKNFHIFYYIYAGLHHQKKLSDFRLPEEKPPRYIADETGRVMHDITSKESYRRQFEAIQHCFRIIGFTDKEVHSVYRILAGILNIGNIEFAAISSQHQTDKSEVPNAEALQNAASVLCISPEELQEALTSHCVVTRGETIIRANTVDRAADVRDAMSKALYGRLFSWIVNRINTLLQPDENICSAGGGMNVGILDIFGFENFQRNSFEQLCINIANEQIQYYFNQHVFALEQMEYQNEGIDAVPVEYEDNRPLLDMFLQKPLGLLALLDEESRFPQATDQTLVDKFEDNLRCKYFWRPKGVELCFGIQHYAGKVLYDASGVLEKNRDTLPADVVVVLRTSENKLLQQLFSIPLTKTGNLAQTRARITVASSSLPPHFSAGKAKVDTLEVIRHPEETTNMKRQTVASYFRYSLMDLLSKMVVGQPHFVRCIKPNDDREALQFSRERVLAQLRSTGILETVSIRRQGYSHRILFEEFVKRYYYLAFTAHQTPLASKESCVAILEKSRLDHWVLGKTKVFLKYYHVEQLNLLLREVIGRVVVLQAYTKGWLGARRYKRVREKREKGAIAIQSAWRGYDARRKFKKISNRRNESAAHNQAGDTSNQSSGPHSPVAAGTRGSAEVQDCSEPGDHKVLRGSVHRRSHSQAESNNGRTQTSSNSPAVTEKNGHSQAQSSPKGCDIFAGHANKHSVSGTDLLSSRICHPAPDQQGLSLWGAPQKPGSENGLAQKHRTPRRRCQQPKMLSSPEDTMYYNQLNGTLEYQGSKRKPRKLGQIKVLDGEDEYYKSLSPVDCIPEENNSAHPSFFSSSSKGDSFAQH

The term Kd denotes the equilibrium constant for the complex coming apart. A higher Kd goes with a looser complex.

Each structure is given as a SMILES string.

Sequence of Serine/threonine-protein kinase N1 (Q16512 whole entry): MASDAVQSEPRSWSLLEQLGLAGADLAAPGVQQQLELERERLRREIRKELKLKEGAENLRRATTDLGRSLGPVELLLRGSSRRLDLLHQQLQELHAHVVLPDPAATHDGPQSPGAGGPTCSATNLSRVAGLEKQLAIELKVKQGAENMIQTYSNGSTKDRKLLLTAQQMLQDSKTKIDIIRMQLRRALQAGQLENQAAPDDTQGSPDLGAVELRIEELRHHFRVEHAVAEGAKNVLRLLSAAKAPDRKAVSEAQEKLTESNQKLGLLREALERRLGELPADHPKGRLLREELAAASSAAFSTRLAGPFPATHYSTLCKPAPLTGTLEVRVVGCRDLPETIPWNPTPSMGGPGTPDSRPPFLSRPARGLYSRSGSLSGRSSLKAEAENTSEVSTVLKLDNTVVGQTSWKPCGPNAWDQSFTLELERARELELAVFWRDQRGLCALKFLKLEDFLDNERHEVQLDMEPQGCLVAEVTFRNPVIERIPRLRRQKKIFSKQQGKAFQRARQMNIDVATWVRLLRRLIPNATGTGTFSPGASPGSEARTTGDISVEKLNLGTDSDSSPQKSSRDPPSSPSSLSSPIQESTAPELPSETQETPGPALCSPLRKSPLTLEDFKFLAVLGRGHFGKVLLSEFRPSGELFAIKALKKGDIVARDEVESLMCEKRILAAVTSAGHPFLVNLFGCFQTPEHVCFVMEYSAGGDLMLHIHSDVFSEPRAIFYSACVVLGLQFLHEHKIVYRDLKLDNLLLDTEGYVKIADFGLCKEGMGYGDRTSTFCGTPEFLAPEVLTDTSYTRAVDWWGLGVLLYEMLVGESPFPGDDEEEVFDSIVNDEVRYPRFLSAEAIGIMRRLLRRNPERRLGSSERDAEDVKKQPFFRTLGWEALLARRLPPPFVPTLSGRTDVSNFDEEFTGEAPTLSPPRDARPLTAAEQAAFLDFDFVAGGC

Consider `Oc1ccc(-c2nc(-c3ccncc3)c(-c3ccc(F)cc3)[nH]2)cc1` [SB-202190], for which the Kd in assay [1], in assay [2] and in assay [3] was > 10 µM throughout.
As for `CCN1CCN(Cc2ccc(NC(=O)Nc3ccc(Oc4cc(NC)ncn4)cc3)cc2C(F)(F)F)CC1` [AST-487], the Kd in assay [2] was > 10 µM.
Consider `COCC(=O)NC/C=C/c1ccc2ncnc(Nc3ccc(Oc4ccc(C)nc4)c(C)c3)c2c1` [CP-724714], for which the dissociation constant Kd in assay [1], in assay [2] and in assay [3] was > 10 µM in each case.
For the compound `Nc1nc(Nc2ccc(S(N)(=O)=O)cc2)nn1C(=O)c1c(F)cccc1F` [JNJ-7706621], the Kd in assay [1], in assay [2] and in assay [3] was > 10 µM throughout.
On to `NC(=O)c1ccc(-c2nc(-c3ccc4c(c3)OCO4)c(-c3ccccn3)[nH]2)cc1` [SB-431542], for which the Kd in assay [1], in assay [2] and in assay [3] was > 10 µM each time.
As to `CCOc1cc2ncc(C#N)c(Nc3ccc(F)c(Cl)c3)c2cc1NC(=O)/C=C/CN(C)C` [PELITINIB], the Kd in assay [1] and in assay [3] was > 10 µM throughout.
